Read-outs that look alike come from different tables or passages of the source.
Key:
[1] = biological target: COVID-19 (nCoV-2019, SARS-CoV2) Mpro (Severe acute respiratory syndrome coronavirus 2, UniProt P0DTD1); experiment: COVID-19 (nCoV-2019, SARS-CoV2) Mpro enzymatic assay; type: biochemical; conditions: 25 nM Mpro, 25 μM substrate; read-out: COVID-19 Mpro IC50
229E Mpro = 229E Mpro (Human coronavirus 229E, UniProt P0C6X1); experiment: 229E Mpro enzymatic assay (standard methods, SARS-CoV2 Mpro assay given as exemplary); type: biochemical, human coronavirus (HCov) 229E
Method in brief: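 IC50 for 229E Mpro by standard methods; exemplary SARS-CoV-2 protocol used C-His6-tagged Mpro from E. coli, 25 nM enzyme, 25 μM substrate (Km 13.5 μM), in Tris-HCl pH 7.3, NaCl, EDTA, TCEP, 0.1% BSA. Inhibition normalised to no-compound and full-effect controls; four-parameter fit.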

HCoV 229E = HCoV 229E cytopathic effect (CPE) assay, CellTiter Glo; type: cell-based, human coronavirus (HCov) 229E; conditions: protection of virus-induced CPE
Method: Example 238: Evaluation of antiviral activity of compounds against human coronavirus (HCov) 229E and OC43 in the cytopathic effect (CPE) assays
Compounds were assayed using standard methods against multiple coronaviral strains, including HCoV 229E and OC43 strains. The antiviral activity of compounds was calculated based on the protection of the virus-induced CPE at each concentration normalized by the virus control.
Cytopathic effect (CPE) was measured by CellTiter Glo following the manufacturer's manual. The antiviral activity of compounds was calculated based on the protection of the virus-induced CPE at each concentration normalized by the virus control.
Cell viability was measured with CellTiter Glo.

HCov OC43 = experiment: HCoV OC43 cytopathic effect (CPE) assay, CellTiter Glo; type: cell-based, human coronavirus (HCov) OC43
[2] = Betacoronavirus 1, OC43, read-out: OC43 IC50 (uM) MEDIAN, median
[3] = read-out: OC43 IC50 (uM) MEDIAN, median

Chain of 229E Mpro (P0C6X1 2966-3267): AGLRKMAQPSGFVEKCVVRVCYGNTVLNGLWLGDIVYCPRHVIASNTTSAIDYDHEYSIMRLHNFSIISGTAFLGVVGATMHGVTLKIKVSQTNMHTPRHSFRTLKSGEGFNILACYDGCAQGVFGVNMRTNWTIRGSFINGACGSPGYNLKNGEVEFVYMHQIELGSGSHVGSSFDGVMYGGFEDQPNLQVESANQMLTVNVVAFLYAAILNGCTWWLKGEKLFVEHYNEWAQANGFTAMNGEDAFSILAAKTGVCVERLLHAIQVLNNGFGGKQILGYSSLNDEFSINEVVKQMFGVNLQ

SMILES | IC50 [1] [µM] | EC50 (229E Mpro; 229E Mpro EC50) [µM] | EC50 (HCoV 229E; unidentified human coronavirus) [µM] | further results
CN1CCN(C(=O)C(c2cccnc2)N(C(=O)[C@H]2CCCN2C#N)c2ccc(C(C)(C)C)cc2)CC1 (mixture of isomers) [Compound 967, (2R)—N-(4-(tert-butyl)phenyl)-1-cyano-N-(2-(4-methylpiperazin-1-yl)-2-oxo-1-(pyridin-3-yl)ethyl)pyrrolidine-2-carboxamide] | 2 to 10 | < 2 | 2 to 10 | IC50 (HCov OC43; [2]): 2 to 10 µM
CC(C)(C)c1ccc(N(C(=O)[C@H]2C[C@@H](Oc3ccccc3)CN2C#N)C(C(=O)NC2CCCCC2)c2cccnc2)cc1 (single isomer, unassigned) [307 Isomer 1] | < 2 | < 2 | < 2 | IC50 (HCov OC43; [2]): < 2 µM
CC(C)(C)c1ccc(N(C(=O)[C@H]2C[C@@H](O)CN2C#N)C(C(=O)NCCN2CCOCC2)c2cccnc2)cc1 (single isomer, unassigned) [587 Isomer 1] | < 2 | < 2 | < 2 | IC50 (HCov OC43; [2]): < 2 µM
CC(C)(C)c1ccc(N(C(=O)[C@H]2C[C@@H](O)CN2C#N)C(C(=O)NCCN2CCOCC2)c2cccnc2)cc1 (single isomer, unassigned) [587 Isomer 2] | 2 to 10 |  |  | EC50 (229E Mpro; read-out: 229E Mpro EC50): < 2 µM; EC50 (HCoV 229E): 2 to 10 µM; IC50 (HCov OC43; [3]): 2 to 10 µM
CC(C)(C)c1ccc(N(C(=O)[C@H]2C[C@@H](O)CN2C#N)C(C(=O)NC2CCCC2)c2cccnc2)cc1 (single isomer, unassigned) [595 Isomer 1] | 2 to 10 | < 2 | 2 to 10 | IC50 (HCov OC43; [2]): 2 to 10 µM
CC(C)(C)c1ccc(N(C(=O)[C@H]2C[C@@H](O)CN2C#N)C(C(=O)NC2CCOCC2)c2cccnc2)cc1 (single isomer, unassigned) [619 Isomer 1] | < 2 | < 2 | 2 to 10 | IC50 (HCov OC43; [2]): < 2 µM
CC(C)(C)c1ccc(N(C(=O)[C@H]2C[C@@H](O)CN2C#N)C(C(=O)NC2CCOCC2)c2cccnc2)cc1 (single isomer, unassigned) [619 Isomer 2] | 2 to 10 |  |  | EC50 (229E Mpro; read-out: 229E Mpro EC50): < 2 µM; EC50 (HCoV 229E): < 2 µM; IC50 (HCov OC43; [3]): 2 to 10 µM
COCCNC(=O)C(c1cccnc1)N(C(=O)[C@H]1C[C@@H](O)CN1C#N)c1ccc(C(C)(C)C)cc1 (single isomer, unassigned) [627 Isomer 1] | < 2 | < 2 | 2 to 10 | IC50 (HCov OC43; [3]): < 2 µM
COCCNC(=O)C(c1cccnc1)N(C(=O)[C@H]1C[C@@H](O)CN1C#N)c1ccc(C(C)(C)C)cc1 (single isomer, unassigned) [627 Isomer 2] | 2 to 10 |  |  | EC50 (229E Mpro; read-out: 229E Mpro EC50): < 2 µM; EC50 (HCoV 229E): 2 to 10 µM; IC50 (HCov OC43; [3]): 10 to 30 µM
COCCCNC(=O)C(c1cccnc1)N(C(=O)[C@H]1C[C@@H](O)CN1C#N)c1ccc(C(C)(C)C)cc1 (single isomer, unassigned) [647 Isomer 2] | < 2 |  | 2 to 10 | EC50 (229E Mpro; read-out: 229E Mpro EC50): < 2 µM; IC50 (HCov OC43; [3]): 2 to 10 µM
Cn1cnnc1C(C(=O)NC1CCCCC1)N(C(=O)[C@H]1C[C@@H](O)CN1C#N)c1ccc(C(C)(C)C)cc1 (single isomer, unassigned) [659 Isomer 1] | 2 to 10 | < 2 | < 2 | IC50 (HCov OC43; [3]): 10 to 30 µM
Cn1cnnc1C(C(=O)NC1CCCCC1)N(C(=O)[C@H]1C[C@@H](O)CN1C#N)c1ccc(C(C)(C)C)cc1 (single isomer, unassigned) [659 Isomer 2] | 2 to 10 |  |  | EC50 (229E Mpro; read-out: 229E Mpro EC50): < 2 µM; EC50 (HCoV 229E): 2 to 10 µM; IC50 (HCov OC43; [3]): 2 to 10 µM
N#CN1C[C@H](O)C[C@@H]1C(=O)N(c1ccc(C2CC2)cc1)C(C(=O)NC1CCCCC1)c1cccnc1 (single isomer, unassigned) [723 Isomer 1] | < 2 | < 2 | < 2 | IC50 (HCov OC43; [2]): < 2 µM
N#CN1C[C@H](O)C[C@@H]1C(=O)N(c1ccc(C2CC2)cc1)C(C(=O)NC1CCCCC1)c1cccnc1 (single isomer, unassigned) [723 Isomer 2] | 10 to 30 | 2 to 10 |  | EC50 (HCoV 229E): 2 to 10 µM; IC50 (HCov OC43; [3]): 2 to 10 µM
CC(C)(C)c1ccc(N(C(=O)[C@H]2COCCN2C#N)C(C(=O)NC2CCCCC2)c2cccnc2)cc1 (single isomer, unassigned) [Compound 202 Isomer 1] | < 2 | < 2 | < 2 | 
C[C@H]1CC[C@H](C(=O)N(c2ccc(C(C)(C)C)cc2)C(C(=O)NC2CCCCC2)c2cccnc2)N1C#N (single isomer, unassigned) [Compound 247 Isomer 1] | 2 to 10 | < 2 | < 2 | 
CC(C)(C)c1ccc(N(C(=O)[C@H]2C[C@@H](O)CN2C#N)C(C(=O)NC2CCCCC2)c2cccnc2)cc1 (single isomer, unassigned) [Compound 254 Isomer 1] | 2 to 10 |  |  | EC50 (229E Mpro; read-out: 229E Mpro EC50): < 2 µM; EC50 (HCoV 229E): 2 to 10 µM

SMILES | IC50 [1] [µM] | EC50 (229E Mpro; 229E Mpro EC50) [µM] | EC50 (HCoV 229E; unidentified human coronavirus) [µM] | further results
CC(C)(C)c1ccc(N(C(=O)[C@H]2C[C@@H](O)CN2C#N)C(C(=O)NC2CCCCC2)c2cccnc2)cc1 (single isomer, unassigned) [Compound 254] | < 2 | < 2 | < 2 | 
CC(C)(C)c1ccc(N(C(=O)[C@H]2C[C@H](O)CN2C#N)C(C(=O)NC2CCCCC2)c2cccnc2)cc1 (single isomer, unassigned) [Compound 255 Isomer 1] | 2 to 10 | < 2 |  | EC50 (HCoV 229E; listed as 255 Isomer 1): 10 to 30 µM
CC(C)(C)c1ccc(N(C(=O)[C@H]2C[C@H](O)CN2C#N)C(C(=O)NC2CCCCC2)c2cccnc2)cc1 (single isomer, unassigned) [Compound 255 Isomer 2] | < 2 |  |  | EC50 (229E Mpro; read-out: 229E Mpro EC50): < 2 µM; EC50 (HCoV 229E; listed as 255 Isomer 2): < 2 µM
CC(C)(C)c1ccc(N(C(=O)[C@H]2CC(=O)CN2C#N)C(C(=O)NC2CCCCC2)c2cccnc2)cc1 (single isomer, unassigned) [Compound 278 Isomer 2] | 2 to 10 |  | 2 to 10 | EC50 (229E Mpro; read-out: 229E Mpro EC50): < 2 µM; IC50 (HCov OC43; [3]): 10 to 30 µM
CC1(O)C[C@H](C(=O)N(c2ccc(C(C)(C)C)cc2)C(C(=O)NC2CCCCC2)c2cccnc2)N(C#N)C1 (single isomer, unassigned) [Compound 284 Isomer 2] | < 2 | < 2 | < 2 | IC50 (HCov OC43; read-out: OC43 IC50 (uM) MEDIAN, median, listed as 284 Isomer 2): < 2 µM
CC1(C(=O)N(c2ccc(C(C)(C)C)cc2)C(C(=O)NC2CCCCC2)c2cccnc2)CN(C#N)C1 (centres unmarked) [Compound 128, N-(4-tert-butylphenyl)-1-cyano-N-[2-(cyclohexylamino)-2-oxo-1-(3-pyridyl)ethyl]-3-methyl-azetidine-3-carboxamide] | 10 to 30 | 2 to 10 | 2 to 10 | 
CC(C)(C)c1ccc(N(C(=O)C2c3ccccc3CN2C#N)C(C(=O)NC2CCCCC2)c2cccnc2)cc1 (centres unmarked) [Compound 371] |  |  | < 2 | 
CC(C)(C)c1ccc(N(C(=O)[C@H]2CCCN2C#N)C(C(=O)NCCN2CCOCC2)c2cccnc2)cc1 (stereo partly drawn) [Compound 391, (2R)—N-(4-(tert-butyl)phenyl)-1-cyano-N-(2-((2-morpholinoethyl)amino)-2-oxo-1-(pyridin-3-yl)ethyl)pyrrolidine-2-carboxamide] |  |  | 2 to 10 | 
COc1ccc(NC(=O)C(c2cccnc2)N(C(=O)[C@H]2CCCN2C#N)c2ccc(C(C)(C)C)cc2)cn1 (stereo partly drawn) [Compound 407, (2R)—N-(4-(tert-butyl)phenyl)-1-cyano-N-(2-((6-methoxypyridin-3-yl)amino)-2-oxo-1-(pyridin-3-yl)ethyl)pyrrolidine-2-carboxamide] |  |  | < 2 | 
CC(C)(C)c1ccc(N(C(=O)[C@H]2CCCN2C#N)C(C(=O)NC2CCCCC2)c2cncc(F)c2)cc1 (stereo partly drawn) [Compound 475, (2R)—N-(4-(tert-butyl)phenyl)-1-cyano-N-(2-(cyclohexylamino)-1-(5-fluoropyridin-3-yl)-2-oxoethyl)pyrrolidine-2-carboxamide] |  |  | < 2 | 
CC(C)(C)c1ccc(N(C(=O)C2CCC(F)(F)CN2C#N)C(C(=O)NC2CCCCC2)c2cccnc2)cc1 (centres unmarked) [Compound 885] |  |  | 2 to 10 | 
CC(C)(C)c1ccc(N(C(=O)[C@H]2[C@H](F)CCN2C#N)C(C(=O)NC2CCCCC2)c2cccnc2)cc1 (stereo partly drawn) [Compound 910, (2S,3R)—N-(4-tert-butylphenyl)-1-cyano-N-[2-(cyclohexylamino)-2-oxo-1-(3-pyridyl)ethyl]-3-fluoro-pyrrolidine-2-carboxamide] |  |  | < 2 | 
CC(C)(C)c1ccc(N(C(=O)[C@H]2CCCN2C#N)C(C(=O)N2CCOCC2)c2cccnc2)cc1 (some centres unmarked) [Compound 959] |  |  | 2 to 10 | 
O=C(NC1CCCCC1)C(c1cnnc2ccccc12)N(C(=O)[C@H]1C[C@@H](O)CN1)c1ccc(S(F)(F)(F)(F)F)cc1 (some centres unmarked) [Compound 988] |  |  | < 2 | 
COc1cncc(C(C(=O)NC2CCCCC2)N(C(=O)[C@H]2C[C@@H](O)CN2C#N)c2ccc(C(C)(C)C)cc2)c1 (some centres unmarked) [Compound 992] |  |  | 2 to 10 | 
CO[C@@H]1C[C@H](C(=O)N(c2ccc(S(F)(F)(F)(F)F)cc2)C(C(=O)N2CCNCC2)c2cccnc2)N(C#N)C1 (some centres unmarked) [Compound 1149] |  |  | < 2 | 
